Test results reported in patent publication US11174245B2, “Benzimidazole compounds and derivatives as EGFR inhibitors” (Boehringer Ingelheim International GmbH, priority 2018, dated 2021).

target: EGFR wt (Homo sapiens (Human), UniProt P00533); assay: Biochemical EGFR inhibition assay (TR-FRET, poly-GT substrate), EGFR wt; settings: read-out: wt (5 μM ATP) IC50; 5 μM ATP
Description: (§1) Biochemical EGFR Inhibition Assays
(§2) Initially, the inhibitory effect of compounds according to the invention is measured in biochemical assays which measure the phosphorylation activity of EGFR enzyme forms on poly-GT substrate in the presence of different concentrations of ATP (5 μM and 100 μM final assay concentration).
(§3) The following enzyme forms of EGFR are representative examples that can be used in these assays at the given concentrations:
(§4) For the chosen highest assay concentration of 100 μM, 150 nL of compound solution is transferred from a 10 mM DMSO compound stock solution. A series of eleven fivefold dilutions per compound is transferred to the assay plate, compound dilutions are tested in duplicates. DMSO is added as backfill to a total volume of 150 nL. The assay runs on a fully automated robotic system.
(§5) These biochemical EGFR enzyme form compound dose-response assays quantify the kinase activity via phosphorylation of a tagged poly-GT substrate. The results of the assay are provided as IC50 values.

Sequence of EGFR wt (P00533 25-1210): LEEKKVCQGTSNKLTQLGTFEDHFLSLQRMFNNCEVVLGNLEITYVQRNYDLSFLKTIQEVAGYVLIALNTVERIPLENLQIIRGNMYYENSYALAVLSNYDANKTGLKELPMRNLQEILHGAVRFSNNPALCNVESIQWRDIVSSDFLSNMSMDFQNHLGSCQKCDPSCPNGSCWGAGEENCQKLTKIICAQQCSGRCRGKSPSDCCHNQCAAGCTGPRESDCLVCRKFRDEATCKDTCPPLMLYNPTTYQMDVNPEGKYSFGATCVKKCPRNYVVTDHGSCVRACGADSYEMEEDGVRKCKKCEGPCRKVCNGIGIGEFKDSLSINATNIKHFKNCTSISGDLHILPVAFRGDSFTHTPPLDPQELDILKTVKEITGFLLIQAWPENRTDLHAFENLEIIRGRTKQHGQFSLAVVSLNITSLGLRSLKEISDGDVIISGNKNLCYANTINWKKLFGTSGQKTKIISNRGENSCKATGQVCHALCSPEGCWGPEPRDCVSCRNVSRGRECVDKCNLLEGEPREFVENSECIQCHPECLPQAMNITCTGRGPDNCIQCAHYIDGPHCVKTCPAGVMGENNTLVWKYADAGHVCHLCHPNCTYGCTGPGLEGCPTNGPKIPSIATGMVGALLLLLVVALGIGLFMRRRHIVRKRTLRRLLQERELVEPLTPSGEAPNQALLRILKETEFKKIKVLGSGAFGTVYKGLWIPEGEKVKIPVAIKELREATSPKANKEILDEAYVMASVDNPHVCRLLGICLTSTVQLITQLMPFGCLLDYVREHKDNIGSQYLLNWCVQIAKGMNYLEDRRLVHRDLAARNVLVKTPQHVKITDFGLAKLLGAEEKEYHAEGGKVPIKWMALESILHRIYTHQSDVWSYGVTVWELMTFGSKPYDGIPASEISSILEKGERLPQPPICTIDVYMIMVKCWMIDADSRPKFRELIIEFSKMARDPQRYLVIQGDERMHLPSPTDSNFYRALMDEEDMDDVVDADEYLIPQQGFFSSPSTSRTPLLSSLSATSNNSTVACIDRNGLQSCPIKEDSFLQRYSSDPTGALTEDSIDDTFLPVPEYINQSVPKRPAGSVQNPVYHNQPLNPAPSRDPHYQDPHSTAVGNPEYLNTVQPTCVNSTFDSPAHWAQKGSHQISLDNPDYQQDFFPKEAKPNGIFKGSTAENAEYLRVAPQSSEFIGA

IC50 | Structure (SMILES)
> 100000 nM | CC(C)(O)Cn1/c(=N/C(=O)c2ccnc(-c3cccnc3)c2)[nH]c2cc(CCO)ccc21 [I-056]
65.6 nM | COc1ccccc1-c1cc(C(=O)/N=c2\[nH]c3cc(CN4CCOCC4)ccc3n2CC(C)(C)O)ccn1 [I-060]
> 4000 nM | CC(C)(O)Cn1/c(=N/C(=O)c2ccnc(-c3ccccc3)c2)[nH]c2ccccc21 [I-064]
14700 nM | CC(C)(O)Cn1/c(=N/C(=O)c2ccnc(-c3cccn4cnnc34)c2)[nH]c2ccccc21 [I-91]
213 nM | CN(C)Cc1cccc(-c2cc(C(=O)/N=c3\[nH]c4ccccc4n3CC(C)(C)O)ccn2)c1 [I-102]
336 nM | O=C(/N=c1\[nH]c2ccccc2n1[C@H]1CC[C@@H](O)CC1)c1ccnc(-c2ccccc2)c1 [I-107]
19.3 nM | COc1ccccc1-c1cc(C(=O)/N=c2\[nH]c3ccccc3n2[C@H]2CC[C@@H](O)CC2)ccn1 [I-108]

same assay, conditions: read-out: wt (100 μM ATP) IC50; 100 μM ATP

IC50 | Structure (SMILES)
10000 nM | COc1ccncc1-c1cc(C(=O)/N=c2\[nH]c3ccccc3n2CC(C)(C)O)ccn1 [I-018]
14600 nM | Cn1cc(-c2cc(C(=O)/N=c3\[nH]c4cc(C5CCN(C6CC6)CC5)ccc4n3CC(C)(C)O)ccn2)cn1 [I-042]
> 100000 nM | CC(C)(O)Cn1/c(=N/C(=O)c2ccnc(-c3ccccc3)c2)[nH]c2ccccc21 [I-064]
21100 nM | COCCCNc1ccc2c(c1)[nH]/c(=N\C(=O)c1ccnc(-c3cccnc3)c1)n2CC(C)(C)O [I-78]
6060 nM | CN(C)Cc1cccc(-c2cc(C(=O)/N=c3\[nH]c4ccccc4n3CC(C)(C)O)ccn2)c1 [I-102]
1800 nM | COc1ccccc1-c1cc(C(=O)/N=c2\[nH]c3ccccc3n2CC(C)(C)O)ccn1 [I-105]
> 100000 nM | O=C(/N=c1\[nH]c2ccccc2n1[C@H]1CC[C@@H](O)CC1)c1ccnc(-c2ccccc2)c1 [I-107]
1010 nM | COc1ccccc1-c1cc(C(=O)/N=c2\[nH]c3ccccc3n2[C@H]2CC[C@@H](O)CC2)ccn1 [I-108]

target: EGFR (mutated) 695-1022, T790M, C797S, L858R (Homo sapiens (Human), UniProt P00533, C797S/L858R/T790M); assay: Biochemical EGFR inhibition assay (TR-FRET, poly-GT substrate), EGFR T790M C797S L858R; settings: read-out: LR_TM_CS (5 μM ATP) IC50; 5 μM ATP
Description: as §1, §2, §3, §4, §5

Sequence of EGFR (mutated) 695-1022, T790M, C797S, L858R (P00533 695-1022 T790M/C797S/L858R): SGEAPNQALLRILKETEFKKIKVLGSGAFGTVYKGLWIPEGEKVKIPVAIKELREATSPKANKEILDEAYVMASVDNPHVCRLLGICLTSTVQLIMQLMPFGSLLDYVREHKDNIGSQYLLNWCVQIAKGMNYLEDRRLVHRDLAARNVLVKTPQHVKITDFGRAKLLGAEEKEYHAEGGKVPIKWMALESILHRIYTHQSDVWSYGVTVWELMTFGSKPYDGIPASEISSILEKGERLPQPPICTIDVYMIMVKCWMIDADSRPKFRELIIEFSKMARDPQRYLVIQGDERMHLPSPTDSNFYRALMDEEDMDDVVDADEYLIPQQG

IC50 | Structure (SMILES)
118 nM | CC(C)(O)Cn1/c(=N/C(=O)c2ccnc(-c3cccnc3)c2)[nH]c2cc(CCO)ccc21 [I-056]
0.7 nM | COc1ccccc1-c1cc(C(=O)/N=c2\[nH]c3cc(CN4CCOCC4)ccc3n2CC(C)(C)O)ccn1 [I-060]
13.1 nM | CC(C)(O)Cn1/c(=N/C(=O)c2ccnc(-c3ccccc3)c2)[nH]c2ccccc21 [I-064]
61.1 nM | CC(C)(O)Cn1/c(=N/C(=O)c2ccnc(-c3cccn4cnnc34)c2)[nH]c2ccccc21 [I-91]
1 nM | CN(C)Cc1cccc(-c2cc(C(=O)/N=c3\[nH]c4ccccc4n3CC(C)(C)O)ccn2)c1 [I-102]
0.7 nM | COc1ccccc1-c1cc(C(=O)/N=c2\[nH]c3ccccc3n2CC(C)(C)O)ccn1 [I-105]
1.8 nM | O=C(/N=c1\[nH]c2ccccc2n1[C@H]1CC[C@@H](O)CC1)c1ccnc(-c2ccccc2)c1 [I-107]
0.6 nM | COc1ccccc1-c1cc(C(=O)/N=c2\[nH]c3ccccc3n2[C@H]2CC[C@@H](O)CC2)ccn1 [I-108]

same assay, conditions: read-out: LR_TM_CS (100 μM ATP) IC50; 100 μM ATP

IC50 | Structure (SMILES)
11.9 nM | COc1ccncc1-c1cc(C(=O)/N=c2\[nH]c3ccccc3n2CC(C)(C)O)ccn1 [I-018]
24.3 nM | Cn1cc(-c2cc(C(=O)/N=c3\[nH]c4cc(C5CCN(C6CC6)CC5)ccc4n3CC(C)(C)O)ccn2)cn1 [I-042]
267 nM | CC(C)(O)Cn1/c(=N/C(=O)c2ccnc(-c3ccccc3)c2)[nH]c2ccccc21 [I-064]
95.2 nM | COCCCNc1ccc2c(c1)[nH]/c(=N\C(=O)c1ccnc(-c3cccnc3)c1)n2CC(C)(C)O [I-78]
13.7 nM | CN(C)Cc1cccc(-c2cc(C(=O)/N=c3\[nH]c4ccccc4n3CC(C)(C)O)ccn2)c1 [I-102]
10.3 nM | COc1ccccc1-c1cc(C(=O)/N=c2\[nH]c3ccccc3n2CC(C)(C)O)ccn1 [I-105]
45.7 nM | O=C(/N=c1\[nH]c2ccccc2n1[C@H]1CC[C@@H](O)CC1)c1ccnc(-c2ccccc2)c1 [I-107]
10.3 nM | COc1ccccc1-c1cc(C(=O)/N=c2\[nH]c3ccccc3n2[C@H]2CC[C@@H](O)CC2)ccn1 [I-108]

target: EGFR del19 T790M C797S protein in Ba/F3 cells (Homo sapiens, UniProt P00533, C797S/DEL746-750/T790M); assay: pEGFR assay (AlphaScreen Surefire, EGFR Tyr1068 phosphorylation); format: cell-based; settings: not given
Description: Transduced cells were selected using puromycin. Following selection, IL-3 was withdrawn and IL-3 independent cells cultured. p-EGFR Tyr1068 was determined using the AlphaScreen Surefire pEGF Receptor (Tyr1068) Assay (PerkinElmer, TGRERS). […] Subsequently, 60.000 cells/well in 60 μL were added. Cells were incubated with compound for 4 h at 37° C. […] The mixture was incubated at room temperature with shaking (700 rpm) for 20 min. After centrifugation, 4 μL of the lysate were transferred to Proxiplates. […] Plates were shaken for 1 min (1400 rpm) and incubated for 2 h at room temperature in the dark.
The results of the assay are provided as IC50 values (see table 12).

Sequence of EGFR del19 T790M C797S protein in Ba/F3 cells (P00533 with tags, fused parts or gaps C797S/DEL746-750/T790M limits assumed): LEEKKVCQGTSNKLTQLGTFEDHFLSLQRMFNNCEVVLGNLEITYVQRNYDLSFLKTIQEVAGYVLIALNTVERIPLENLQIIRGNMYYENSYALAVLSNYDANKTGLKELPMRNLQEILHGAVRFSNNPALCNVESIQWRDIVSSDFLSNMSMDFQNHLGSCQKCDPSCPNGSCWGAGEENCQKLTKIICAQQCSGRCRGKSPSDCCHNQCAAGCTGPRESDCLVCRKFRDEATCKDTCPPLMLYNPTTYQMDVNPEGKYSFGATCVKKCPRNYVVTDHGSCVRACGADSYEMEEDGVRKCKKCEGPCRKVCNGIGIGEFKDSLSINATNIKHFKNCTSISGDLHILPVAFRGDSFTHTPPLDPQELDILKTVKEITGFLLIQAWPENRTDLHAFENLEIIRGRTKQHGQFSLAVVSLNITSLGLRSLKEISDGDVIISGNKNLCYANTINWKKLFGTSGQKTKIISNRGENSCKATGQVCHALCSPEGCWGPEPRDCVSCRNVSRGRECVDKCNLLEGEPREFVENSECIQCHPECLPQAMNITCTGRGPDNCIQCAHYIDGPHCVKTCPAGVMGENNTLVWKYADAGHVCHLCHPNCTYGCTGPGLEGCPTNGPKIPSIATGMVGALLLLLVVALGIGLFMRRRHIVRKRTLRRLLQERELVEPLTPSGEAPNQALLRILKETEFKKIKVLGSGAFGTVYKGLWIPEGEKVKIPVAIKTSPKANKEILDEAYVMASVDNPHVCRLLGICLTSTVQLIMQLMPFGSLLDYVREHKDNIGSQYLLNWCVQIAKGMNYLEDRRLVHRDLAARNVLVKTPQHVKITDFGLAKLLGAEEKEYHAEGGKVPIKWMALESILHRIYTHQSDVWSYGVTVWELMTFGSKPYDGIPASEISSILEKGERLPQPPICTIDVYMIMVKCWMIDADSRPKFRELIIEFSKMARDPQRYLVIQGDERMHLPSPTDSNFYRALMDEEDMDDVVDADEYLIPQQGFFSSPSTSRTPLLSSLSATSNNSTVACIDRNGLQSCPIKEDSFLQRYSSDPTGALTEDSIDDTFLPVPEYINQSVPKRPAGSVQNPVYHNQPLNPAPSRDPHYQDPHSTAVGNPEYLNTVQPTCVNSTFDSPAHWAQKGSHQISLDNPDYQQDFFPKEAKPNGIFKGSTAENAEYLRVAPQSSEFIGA

IC50 | Structure (SMILES)
1 nM | COc1ccncc1-c1cc(C(=O)/N=c2\[nH]c3ccccc3n2CC(C)(C)O)ccn1 [I-018]
3 nM | Cn1cc(-c2cc(C(=O)/N=c3\[nH]c4cc(C5CCN(C6CC6)CC5)ccc4n3CC(C)(C)O)ccn2)cn1 [I-042]
5 nM | CC(C)(O)Cn1/c(=N/C(=O)c2ccnc(-c3cccnc3)c2)[nH]c2cc(CCO)ccc21 [I-056]
1 nM | COc1ccccc1-c1cc(C(=O)/N=c2\[nH]c3cc(CN4CCOCC4)ccc3n2CC(C)(C)O)ccn1 [I-060]
9 nM | CC(C)(O)Cn1/c(=N/C(=O)c2ccnc(-c3ccccc3)c2)[nH]c2ccccc21 [I-064]
5 nM | COCCCNc1ccc2c(c1)[nH]/c(=N\C(=O)c1ccnc(-c3cccnc3)c1)n2CC(C)(C)O [I-78]
16 nM | CC(C)(O)Cn1/c(=N/C(=O)c2ccnc(-c3cccn4cnnc34)c2)[nH]c2ccccc21 [I-91]
2 nM | CN(C)Cc1cccc(-c2cc(C(=O)/N=c3\[nH]c4ccccc4n3CC(C)(C)O)ccn2)c1 [I-102]
2 nM | COc1ccccc1-c1cc(C(=O)/N=c2\[nH]c3ccccc3n2CC(C)(C)O)ccn1 [I-105]
4 nM | O=C(/N=c1\[nH]c2ccccc2n1[C@H]1CC[C@@H](O)CC1)c1ccnc(-c2ccccc2)c1 [I-107]
3 nM | COc1ccccc1-c1cc(C(=O)/N=c2\[nH]c3ccccc3n2[C@H]2CC[C@@H](O)CC2)ccn1 [I-108]
2 nM | COc1ccccc1-c1cc(C(=O)/N=c2\[nH]c3ccccc3n2[C@@H]2CCC[C@@H](O)C2)ccn1 [I-139]
2 nM | COc1ccccc1-c1cc(C(=O)/N=c2\[nH]c3cc(CN4CC(OC)C4)ccc3n2[C@H]2CC[C@@H](O)CC2)ccn1 [I-140]
3 nM | COc1ccccc1-c1cc(C(=O)/N=c2\[nH]c3cc(CN4CCOCC4)ccc3n2[C@H]2CC[C@@H](O)CC2)ccn1 [I-142]
4 nM | COc1cnccc1-c1cc(C(=O)/N=c2\[nH]c3ccccc3n2[C@H]2CC[C@@H](O)CC2)ccn1 [I-147]
4 nM | O=C(/N=c1\[nH]c2ccccc2n1[C@H]1CC[C@@H](O)CC1)c1ccnc(-n2ccc3cccnc32)c1 [I-150]
4 nM | COc1ccccc1-c1cc(C(=O)/N=c2\[nH]c3cc(CN4CC[C@H](OC)C4)ccc3n2[C@H]2CC[C@@H](O)CC2)ccn1 [I-151]
4 nM | COC[C@H]1CCCN1Cc1ccc2c(c1)[nH]/c(=N\C(=O)c1ccnc(-c3ccccc3OC)c1)n2[C@H]1CC[C@@H](O)CC1 [I-152]
4 nM | COc1ccccc1-c1cc(C(=O)/N=c2\[nH]c3cc(CN4CCCC(OC)C4)ccc3n2[C@H]2CC[C@@H](O)CC2)ccn1 (some centres unmarked) [I-153]
9 nM | Cn1cc(-c2cc(C(=O)/N=c3\[nH]c4ccccc4n3[C@@H]3CCCC[C@H]3O)ccn2)cn1 [I-154]
5 nM | COc1ccccc1-c1cc(C(=O)/N=c2\[nH]c3ccccc3n2[C@H]2COCC[C@@H]2O)ccn1 [I-155]
6 nM | COc1ccccc1-c1cc(C(=O)/N=c2\[nH]c3cc(CN4CC[C@@H](OC)C4)ccc3n2[C@H]2CC[C@@H](O)CC2)ccn1 [I-159]
6 nM | O=C(/N=c1\[nH]c2ccccc2n1[C@H]1CC[C@@H](O)CC1)c1ccnc(-c2ccccc2Cl)c1 [I-160]
7 nM | COc1cnccc1-c1cc(C(=O)/N=c2\[nH]c3ccccc3n2CC(C)(C)O)ccn1 [I-164]
7 nM | Cn1cc(-c2cc(C(=O)/N=c3\[nH]c4cc(C5CCCCO5)ccc4n3CC(C)(C)O)ccn2)cn1 (centres unmarked) [I-165]

IC50 | Structure (SMILES)
7 nM | Cc1ccccc1-c1cc(C(=O)/N=c2\[nH]c3ccccc3n2[C@H]2CC[C@@H](O)CC2)ccn1 [I-166]
8 nM | COc1ccccc1-c1cc(C(=O)/N=c2\[nH]c3ccccc3n2[C@H]2CCC[C@H](O)C2)ccn1 [I-170]
9 nM | CNc1ccc2c(c1)[nH]/c(=N\C(=O)c1ccnc(-c3cnn(C)c3)c1)n2CC(C)(C)O [I-172]
9 nM | COc1ncccc1-c1cc(C(=O)/N=c2\[nH]c3ccccc3n2[C@H]2CC[C@@H](O)CC2)ccn1 [I-173]
9 nM | O=C(/N=c1\[nH]c2ccccc2n1[C@H]1CC[C@@H](O)CC1)c1ccnc(-c2coc3ccccc23)c1 [I-174]
12 nM | O=C(/N=c1\[nH]c2ccccc2n1[C@H]1CC[C@@H](O)CC1)c1ccnc(-c2ccc(F)cc2)c1 [I-177]
12 nM | Cn1cc(-c2cc(C(=O)/N=c3\[nH]c4cc(CCC(C)(C)O)ccc4n3CC(C)(C)O)ccn2)cn1 [I-178]
15 nM | Cn1cnc2c(-c3cc(C(=O)/N=c4\[nH]c5ccccc5n4[C@H]4CC[C@@H](O)CC4)ccn3)cccc21 [I-182]
23 nM | COc1ccccc1-c1cc(C(=O)/N=c2\[nH]c3ccccc3n2[C@H]2CCCC[C@H]2O)ccn1 [I-186]
24 nM | O=C(/N=c1\[nH]c2ccccc2n1[C@H]1CC[C@@H](O)CC1)c1ccnc(-c2ccccc2OC(F)(F)F)c1 [I-187]
30 nM | CC(C)(O)Cn1/c(=N/C(=O)c2ccnc(-n3ccc4cccnc43)c2)[nH]c2ccccc21 [I-188]
33 nM | Cn1cc(-c2cc(C(=O)/N=c3\[nH]c4ccccc4n3[C@H]3COCC[C@@H]3O)ccn2)cn1 [I-190]
68 nM | CCOC(=O)CCc1ccc2c(c1)[nH]/c(=N\C(=O)c1ccnc(-c3cnn(C)c3)c1)n2CC(C)(C)O [I-193]
74 nM | Cn1cc(-c2cc(C(=O)/N=c3\[nH]c4cc(F)ccc4n3CC(C)(C)O)ccn2)cn1 [I-194]
85 nM | Cn1cc(-c2cc(C(=O)/N=c3\[nH]c4ccc(F)cc4n3CC(C)(C)O)ccn2)cn1 [I-195]
18 nM | Cn1cc(-c2cc(C(=O)/N=c3\[nH]c4cc(C5CCNCC5)ccc4n3[C@H]3CC[C@@H](O)CC3)ccn2)cn1 [I-218]
7 nM | O=C(/N=c1\[nH]c2ccccc2n1[C@H]1CC[C@@H](O)CC1)c1ccnc(-n2ccnc2)c1 [I-226]
2 nM | Cc1cc(C(=O)/N=c2\[nH]c3ccc(N4CCN(C)CC4)cc3n2[C@H]2CC[C@@H](O)CC2)cc(-c2cnn(C)c2)n1 [I-227]
2 nM | Cc1cc(C(=O)/N=c2\[nH]c3ccc(C4CCN(C)CC4)cc3n2C2CCCCC2)cc(-c2cnn(C)c2)n1 [I-228]
23 nM | COCCN1CCC(c2ccc3[nH]/c(=N\C(=O)c4cc(C)nc(-c5cnn(C)c5)c4)n(C4CCCCC4)c3c2)CC1 [I-229]
63 nM | Cc1cc2c(cc1N(C)C)[nH]/c(=N\C(=O)c1ccnc(-c3cnn(C)c3)c1)n2CC(C)(C)O [I-231]
1 nM | CN1CCN(c2ccc3[nH]/c(=N\C(=O)c4cc(F)nc(-c5cnn(C)c5)c4)n(C4CCCCC4)c3c2)CC1 [I-232]
2 nM | Cc1cc(C(=O)/N=c2\[nH]c3ccc(N4CCN(C)CC4)cc3n2C2CCCCC2)cc(-c2cnn(C)c2)n1 [I-233]
4 nM | COc1ccccc1-c1cc(C(=O)/N=c2\[nH]c3ccccc3n2[C@@H]2CC[C@@H](O)[C@@H](O)C2)ccn1 [I-234]
